# Legend:
# Assay type in all cases: in vivo
# Concord grape vines [1] = test: Example 1: bud break and shoot growth of potted Concord grape vines in greenhouse; details: for 0-50% BB: days from bud break on the first plant to 50% of the plants with bud break, synchrony
# Text: An aqueous 50% hydrogen cyanamide solution (Sigma-Aldrich, St. Louis, Mo. USA) was used as the source of hydrogen cyanamide (“HC”). The commercial product, Dormex® contains 50% hydrogen cyanamide (w/v) in an aqueous base.
# Erger® was used as the source of 15-0-0 fertilizer. Erger® contains 15% total nitrogen as 3.1% ammoniacal nitrogen, 5.8% nitrate nitrogen, 6.1% urea nitrogen and 3.3% calcium derived from a mixture of ammonium nitrate, calcium nitrate and urea. Erger® is always used in combination with either 20% (w/v) Ca(NO3)2 or Activ Erger®. In the following examples, 15-0-0 fertilizer was applied at a rate of 208,340 ppm calcium nitrate, 15,060 ppm nitrogen nitrate and 15,660 ppm urea or 239,060 ppm total.
# CAN-17 was used as the 17-0-0 fertilizer. CAN-17 contains 17% total nitrogen as 4.6% ammonium nitrogen and 11.6% nitrate nitrogen and 1.3% urea nitrogen and 8.8% calcium derived from ammonium nitrate and calcium nitrate. CAN-17 is available from J. R. Simplot Company (Boise, Id., USA). In the following examples, 17-0-0 fertilizer was applied at a rate of 118,200 ppm calcium nitrate and 78,900 ppm nitrogen nitrate or 197,100 ppm total. See, Table 1 below, for ratios of forchlorfenuron (“CPPU”) to fertilizer that were used in the following examples.
# To assess the ability of mixtures of the invention to promote and synchronize bud break these mixtures were applied to Concord grape vines and examined for bud break (initiation of growth) and subsequent shoot development. Specifically, dormant bare-rooted Concord grape vines were planted in pots containing Pro-Mix® BX potting soil (Pro-Mix is a registered trademark of and available from Premier Horticulture Ltd.) and pruned to five nodes on a single shoot of one-year-old wood. Nodes are regions on the shoot where leaves arise from the shoot and buds are present at the axis of the shoot:leaf interface. The bud found at the shoot:leaf interface develops into the vines new shoot growth. Aqueous solutions of forchlorfenuron, HC, 15-0-0 fertilizer, 17-0-0 fertilizer, and mixtures thereof were each applied individually or sequentially or co-applied to the first-year wood of separate Concord grape vines. Plants were grown in a heated greenhouse for 49 days and evaluated for percent of vines showing bud break, periodically between seven days after application and the conclusion of the experiment. Percent bud break is determined by the number of plants that have at least one bud broken divided by the total number of plants per treatment times 100. At 51 days after treatment (“DAT”), the plants were sacrificed and measured for total number of flower clusters, total new shoot length, longest new shoot, combined new shoot fresh weight. New shoot growth is the growth arising from the dormant buds not including the woody growth that was planted and gave rise to the new growth.
# (§1) To determine if the mixtures provided unexpected results, the observed combined efficacy (“OCE”) was divided by the expected combined efficacy (“ECE”) wherein the expected ECE is calculated by the Abbott method: ECE=A+B−(AB/100), • wherein ECE is the expected combined efficacy and in which A and B are the speed of bud break relative to control, the number of buds broken per plant relative to control, shoot length relative to control or shoot weight relative to control given by the single active ingredients. If the ratio between the OCE of the mixture and the ECE of the mixture is greater than 1, then greater than expected interactions are present in the mixture. (Gisi, Synergistic Interaction of Fungicides in Mixtures, The American Phytopathological Society, 86:11, 1273-1279,1996). Results
# Concord grape vines [2] = test: Example 2: Concord grape vines greenhouse, forchlorfenuron and 17-0-0 fertilizer (CAN17) study
# Text: (§2) To assess the ability of mixtures of the invention to promote and synchronize bud break these mixtures were applied to Concord grape vines and examined for bud break (initiation of growth) and subsequent shoot development. Specifically, dormant bare-rooted Concord grape vines were planted in pots containing Pro-Mix® BX potting soil (Pro-Mix is a registered trademark of and available from Premier Horticulture Ltd.) and pruned to five nodes on a single shoot of one-year-old wood. Nodes are regions on the shoot where leaves arise from the shoot and buds are present at the axis of the shoot:leaf interface. The bud found at the shoot:leaf interface develops into the vines new shoot growth. Aqueous solutions of forchlorfenuron, HC, 15-0-0 fertilizer, 17-0-0 fertilizer, and mixtures thereof were each applied individually or sequentially or co-applied to the first-year wood of separate Concord grape vines. […] Percent bud break is determined by the number of plants that have at least one bud broken divided by the total number of plants per treatment times 100. […] New shoot growth is the growth arising from the dormant buds not including the woody growth that was planted and gave rise to the new growth.
# as §1
# (§3) The experiment from Example 1 was repeated with varying quantities of forchlorfenuron and fertilizers in a greenhouse experiment.
# Concord grape vines [3] = test: Example 2: Concord grape vines greenhouse, forchlorfenuron and 15-0-0 fertilizer (Erger) study
# Text: as §2, §1, §3
# [4] = system: Flame seedless grape vines; test: Example 3: bud break on spurs of field-grown Flame seedless grape vines; details: 41 days post application
# Description: as §1
# To assess the ability of mixtures of the invention to promote and synchronize bud break, these mixtures were applied to field-grown Flame seedless grape vines in Thermal, Calif., and examined for bud break (initiation of growth) and subsequent shoot development. Forchlorfenuron, Dormex (50% HC), 15-0-0 (Erger®) and 17-0-0 fertilizers (CAN17), and mixtures thereof were each applied individually or sequentially (co-applied) to the separate spurs of Flame seedless grape vines. Plants were evaluated for bud break at 41 days after treatment. Results of these evaluations can be seen below in Tables 11 and 12.
# Malus (apple) rootstocks = test: Example 4: bud break and shoot growth of Malus (apple) rootstocks
# Description: as §1
# (§4) To assess the ability of mixtures of the invention to promote and synchronize bud break, these mixtures were applied to field-grown Malus (apple) rootstocks and examined for bud break (initiation of growth) and subsequent shoot development. Forchlorfenuron, Dormex (50% HC), 15-0-0 (Erger®) and 17-0-0 fertilizers (CAN17), and mixtures thereof were each applied individually or sequentially (co-applied) to the shoots of potted Malus rootstocks that were pruned to a height of 25 centimeters. Plants were evaluated for bud break at 28 days after treatment.
# [5] = system: Prunus (stone fruit) plants; test: Example 5: bud break and shoot growth of Prunus (stone fruit) plants in greenhouse
# Description: as §1
# as §4, with “Prunus (stone fruit) plants in the greenhouse” for “field-grown Malus (apple) rootstocks”, “Prunus plants.” for “potted Malus rootstocks that were pruned to a height of 25 centimeters.”
# [6] = combined shoot fresh weight, 52 days after planting
# [7] = days after treatment to 50% bud break
structure (smiles),measurement,setting,value
"N#CN [1% HC (v/v), hydrogen cyanamide]",Percentage of Concord Grape Vines with Dormancy Relieved,"Concord grape vines [1]; 31 days after treatment, plants with at least one bud showing a green shoot emerging",100%
same,Percentage of Concord Grape Vines with Dormancy Relieved,Concord grape vines [1]; 34 days after treatment,100%
same,Percentage of Concord Grape Vines with Dormancy Relieved,Concord grape vines [1]; 36 days after treatment,100%
same,Percentage of Concord Grape Vines with Dormancy Relieved,Concord grape vines [1]; 38 days after treatment,100%
same,Percentage of Concord Grape Vines with Dormancy Relieved,Concord grape vines [1]; 43 days after treatment,100%
same,Percentage of Concord Grape Vines with Dormancy Relieved,Concord grape vines [1]; 45 days after treatment,100%
same,Percentage of Concord Grape Vines with Dormancy Relieved,Concord grape vines [1]; 51 days after treatment,100%
same,Broken Buds/Plant,Concord grape vines [1]; 51 days post-treatment,2.50
same,FW/Broken Bud,Concord grape vines [1]; 51 days post-treatment,11.18 grams
same,FW/Plant,Concord grape vines [1]; combined shoot fresh weight at 51 DAT,27.95 grams
same,50% BB,Concord grape vines [1]; days from application to 50% of the plants showing at least one bud broken,15 days
same,0-50% BB,Concord grape vines [1],4 days
same,0-50% BB,Concord grape vines [1]; listed as 1% HC,four
same,Fresh Weight at Harvest,Concord grape vines [2]; [6],37.01 grams
same,50% BB,Concord grape vines [2]; [7],17 days
same,Average Number of Broken Nodes Per Plant at Harvest,Concord grape vines [2]; harvest 52 days after planting,2.38
same,Fresh Weight at Harvest,Concord grape vines [3]; [6],42.21 grams
same,50% BB,Concord grape vines [3]; [7],17 days
same,Average Number of Broken Nodes Per Plant at Harvest,Concord grape vines [3]; harvest 52 days after planting,2.13
same,Broken Buds per Spur (OCE),[4],1.48
same,Percentage of Spurs With At Least One Bud Broken (OCE),[4],72%
same,Fresh Weight at Harvest,"Malus (apple) rootstocks; combined new shoot growth, harvest at 28 days",7.99 grams
same,50% BB,Malus (apple) rootstocks; [7],12 days
same,Average Number of Broken Buds Per Malus Plant at Harvest,Malus (apple) rootstocks; harvest at 28 days,8.13
same,Fresh Weight per Bud at Harvest,Malus (apple) rootstocks; harvest at 28 days,0.98 grams
same,Average Number of Broken Nodes Per Centimeter of Shoot at Harvest,"Malus (apple) rootstocks; harvest at 28 days, rootstocks pruned to 25 centimeters",0.325
same,"Fresh Weight at Harvest, FW","[5]; combined new shoot fresh weight, harvest at 28 days",4.76 grams
same,50% BB,[5]; [7],7 days

# — patent US11317626B2, “Forchlorfenuron mixtures and uses thereof” (Valent BioSciences LLC, priority 2018, dated 2022)
